# From US8703791B2, “3-carboxypropyl-aminotetralin derivatives and related compounds as mu opioid receptor antagonists” (Theravance, Inc., priority 2007, dated 2014)
# Read-outs that look alike come from different tables or passages of the source.
# Experiments:
# [1] = test system: loperamide-induced delayed gastric emptying; assay: Rat gastric emptying assay, reversal of loperamide-induced delayed gastric emptying; type: in vivo; settings: administered orally, loperamide 1 mg/kg subcutaneous
# human mu opioid receptor [2] = target: T1, human mu opioid receptor (Homo sapiens, UniProt P35372); assay: Human mu [35S]GTPγS nucleotide exchange assay in membranes from CHO-K1 cells; type: biochemical; settings: read-out: intrinsic activity (IA), bound [35S]GTPγS relative to DAMGO (IA=100)
# human mu opioid receptor [3] = target: T1, human mu opioid receptor; assay: Radioligand binding assay, [3H]-Diprenorphine displacement, human mu opioid receptor
# [4] = expressed as a percentage of activation by DAMGO
# T1 sequence (P35372 whole entry): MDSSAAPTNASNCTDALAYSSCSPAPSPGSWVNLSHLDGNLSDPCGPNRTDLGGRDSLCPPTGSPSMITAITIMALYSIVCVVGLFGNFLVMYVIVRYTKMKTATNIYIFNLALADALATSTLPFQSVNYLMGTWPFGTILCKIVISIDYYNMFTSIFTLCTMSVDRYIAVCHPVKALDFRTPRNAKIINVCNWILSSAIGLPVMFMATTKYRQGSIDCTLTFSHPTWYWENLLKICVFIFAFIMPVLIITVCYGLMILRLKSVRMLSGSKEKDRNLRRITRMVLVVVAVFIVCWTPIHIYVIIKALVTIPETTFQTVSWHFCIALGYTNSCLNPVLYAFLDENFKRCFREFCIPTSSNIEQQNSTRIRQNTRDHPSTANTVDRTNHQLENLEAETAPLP
Structure (SMILES),"ID50, dose required for 50% reversal of the effects of loperamide [1] [mg/kg]",Emax (human mu opioid receptor [2]; [4]) [%],Emax (human mu opioid receptor [2]) [%],"Ki (human mu opioid receptor [3]; [3H]-Diprenorphine 0.5 nM, CHO-K1 membranes, read-out: pKi at the human mu opioid receptor (converted)) [nM]",Ki (human mu opioid receptor [3]) [nM]
"CCC1(CC)c2cc(C(N)=O)ccc2C[C@H](OC)[C@H]1NCC[C@H](CC1CCCCC1)C(=O)O [Example 1, (S)-4-((2S,3S)-7-Carbamoyl-1,1-diethyl-3-methoxy-1,2,3,4-tetrahydro-naphthalen-2-ylamino)-2-cyclohexylmethyl-butyric acid]",0.09,,,,
"CCC1(CC)c2cc(C(N)=O)ccc2CC(OC)[C@H]1NCC[C@@H](CC1CCCCC1)C(=O)OC (mixture of isomers) [Example 6, (R)-4-((2S,3SR)-7-Carbamoyl-1,1-diethyl-3-methoxy-1,2,3,4-tetrahydro-naphthalen-2-ylamino)-2-cyclohexylmethyl-butyric acid methyl ester]",,19,,,
"CCC1(CC)c2cc(C(N)=O)ccc2C[C@H](OC)[C@H]1NCC[C@H](CC(C)C)C(=O)OC [Example 7-A, (S)-2-[2-((2S,3S)-7-Carbamoyl-1,1-diethyl-3-methoxy-1,2,3,4-tetrahydro-naphthalen-2-ylamino)-ethyl]-4-methyl-pentanoic acid methyl ester]",,,8,,
"CCCCC[C@@H](CCN[C@@H]1[C@@H](OC)Cc2ccc(C(N)=O)cc2C1(CC)CC)C(=O)O [Example 9, (S)-2-[2-((2S,3S)-7-Carbamoyl-1,1-diethyl-3-methoxy-1,2,3,4-tetrahydro-naphthalen-2-ylamino)-ethyl]-heptanoic acid]",0.10,-2,,0.631,
"CCC1(CC)c2cc(O)ccc2C[C@H](OC)[C@H]1NCC[C@H](CC1CCCCC1)C(=O)O [Example 12, (S)-2-Cyclohexylmethyl-4-((2S,3S)-1,1-diethyl-7-hydroxy-3-methoxy-1,2,3,4-tetrahydro-naphthalen-2-ylamino)-butyric acid]",0.05,,-5,,0.2
"CCC1(CC)c2cc(C(N)=O)ccc2C[C@H](OC)[C@H]1NCC[C@@H](CC1CCCCC1)C(=O)O [Example 10-G, (R)-4-((2S,3S)-7-Carbamoyl-1,1-diethyl-3-methoxy-1,2,3,4-tetrahydro-naphthalen-2-ylamino)-2-cyclohexylmethyl-butyric acid]",0.12,,7,,0.251
"CCC1(CC)c2cc(C(N)=O)ccc2C[C@@H](OC)[C@@H]1NCC[C@@H](CC1CCCCC1)C(=O)OC [Example 5, (R)-4-((2R,3R)-7-Carbamoyl-1,1-diethyl-3-methoxy-1,2,3,4-tetrahydro-naphthalen-2-ylamino)-2-cyclohexylmethyl-butyric acid methyl ester]",,17,,,
"CCC1(CC)c2cc(C(N)=O)ccc2C[C@H](OC)[C@H]1NCC[C@H](CC1CCCCC1)C(=O)OC [Example 2, (S)-4-((2S,3S)-7-Carbamoyl-1,1-diethyl-3-methoxy-1,2,3,4-tetrahydro-naphthalen-2-ylamino)-2-cyclohexylmethyl-butyric acid methyl ester]",,-5,,,
